Test results: patent US7666874B2, “Pyrimidylaminobenzamide derivatives for hypereosinophilic syndrome” (Novartis AG, priority 2005, dated 2010)

Assays:
Ba/F3 Tel-PDGFRβ cells = target: T1, Ba/F3 Tel-PDGFRβ cells (Homo sapiens, UniProt P09619); assay: IL-3 independence cell proliferation assay (ATPLite), Ba/F3 Tel-PDGFRβ; type: cell-based
T1 construct: TEL-PDGFRβ, TEL-PDGFRβ T681I, and TEL-FGFR3 [T/F] are cloned in MSCV-neomycin [MSCV-neo]; fused on or other part: P41212 (Transcription factor ETV6)
Procedure: (§6) TEL-PDGFRβ [T/P], FIP1L1-PDGFRα [F/P], and FIP1L1-PDGFRα T6741 cloned in MSCV-IRES-GFP [MSCV-GFP], and TEL-PDGFRβ, TEL-PDGFRβ T681I, and TEL-FGFR3 [T/F] are cloned in MSCV-neomycin [MSCV-neo].
(§7) Ba/F3 cells are cultured in RPMI 1640 (RPMI)+10% FBS+1 ng/mL mouse interleukin (IL)-3. Retroviral supernatants are generated and used to transduce Ba/F3 cells. T/P MSCV-neo and T/F MSCV-neo cell lines are selected with 1 mg/mL G418 in the presence of IL-3 for 8-10 days. F/P MSCV-GFP cell lines are selected in RPMI lacking IL-3 for 7-10 days. […] Transformed Ba/F3 cells are grown in RPMI lacking IL-3.
(§8) The effects of compounds on viability and proliferation of the cells were determined using the luminescent ATP Detection assay kit ATPLite™ from Perkin Elmer Life Sciences (Cat. No: 6016947) according to the instructions of the suppliers. This assay system is based on the production of light (luminescence) caused by the reaction of ATP with added luciferase and D-luciferin. […]
(§9) The effect of the compound was expressed as percent reduction of the control signal. The TGI50 values were determined from the dose response curves by graphical extrapolation.

[1] = target: T2, Ba/F3 cells transformed by TEL-PDGFRβ T681I mutant (Homo sapiens, UniProt P09619, T681I); assay: Proliferation of Ba/F3 cells transformed by TEL-PDGFRβ T681I mutant; type: cell-based; conditions: Ba/F3 cells transformed with TEL-PDGFRβ T681I mutant
T2 construct: TEL (ETV6) portion (fusion partner); expressed in transfected cells; host or cells: Ba/F3 cells (retroviral transduction, MSCV-neo); the other entry of the earlier key: ETV6 (P41212, Transcription factor ETV6)
Procedure: as §6, §7, §8, §9

TEL-PDGFRβ [2] = assay: Western blot of TEL-PDGFRβ phosphorylation and signaling intermediates in Ba/F3 cells; type: cell-based
Procedure: For T/P: Ba/F3 cells stably expressing T/P or T/F are treated with serum starvation in plain RPMI 1640 for 4 hours prior to lysis. The cell extracts are clarified by centrifugation and used for immunoprecipitation or immunoblotting. The enzyme-linked immunoblotting procedures are performed as described. Applied antibodies include: rabbit anti-PDGFRβ serum (Pharmingen); rabbit anti-PI3K (p85) serum; mouse anti-phosphotyrosine 4G10 (Upstate Biotechnology); antibodies against FGFR3, phospho-PI3K p85 (Tyr-508) (Santa Cruz Biotechnology); PLCγ, phospho-PLCγ (Tyr-783) (Cell Signaling).

TEL-PDGFRβ [3] = assay: Murine bone marrow transplant model of TEL-PDGFRβ-induced myeloproliferative disease; type: in vivo, mouse (Balb/C); conditions: TEL-PDGFRβ transplanted mice
Procedure: (§1) Murine bone marrow transplant experiments are performed as previously described. MSCV-GFP retroviral supernatants are titered by transducing Ba/F3 cells with supernatant (plus polybrene, 10 μg/mL) and analyzing for the percentage of GFP+ cells by flow cytometry at 48 h post-transduction. Balb/C donor mice (Taconic) are treated for 5-6 days with 5-fluorouracil (150 mg/kg, intraperitoneal injection). Bone marrow cells from donor mice are harvested, treated with red blood cell lysis buffer, and cultured 24 h in transplant medium (RPMI+10% FBS+6 ng/mL IL-3, 10 ng/mL IL-6, and 10 ng/mL stem cell factor). Cells are treated by spin infection with retroviral supernatants (1 mL supernatant per 4×10^6 cells, plus polybrene) and centrifuged at 2500 rpm for 90 min. 24 h later, the spin infection is repeated, then cells are washed, resuspended in Hank's balanced salt solution, and injected into lateral tail veins of lethally irradiated (2×450 rad) Balb/C recipient mice (Taconic) at 0.5-1×10^6 cells/mouse. […] Animals are sacrificed when they had palpable splenomegaly or were moribund, or, if healthy, 7 days after sacrifice of the last animal in the placebo group.
(§2) Peripheral blood is collected from the retroorbital cavity using heparinized glass capillary tubes and analyzed by automated complete and differential blood cell counts and smears (stained with Wright and Giemsa). Single cell suspensions of spleen and bone marrow are prepared by pressing tissue through a cell strainer, followed by red blood cell lysis. Cells are frozen in 90% FBS, 10% DMSO.
(§3) For histopathology, tissues are fixed for at least 72 h in 10% neutral buffered formalin, dehydrated in alcohol, cleared in xylene, and infiltrated with paraffin on an automated processor (Leica). The tissue sections (4 μm) from paraffin-embedded tissue blocks are placed on charged slides and deparaffinized in xylene, rehydrated through graded alcohol solutions, and stained with hematoxylin and eosin.
(§4) For flow cytometry, cells are washed in PBS+1% bovine serum albumin (BSA), blocked with Fc-Block (BD Pharmingen) for 10 min on ice, and stained with monoclonal antibodies in PBS+1% BSA for 20 min on ice. Antibodies used are: allophycocyanin (APC)-conjugated Gr1, CD19, and TCRB; and phycoethrin (PE)-conjugated Mac-1, B220, and CD3 (BD Pharmingen). Flow cytometric analysis is performed on a FACSCalibur instrument and analyzed with CellQuest software. Viability is assessed by incubating cells with 7AAD (BD Pharmingen) for 5 min prior to flow cytometry. Cells are gated for viability (using forward/side scatter and 7AAD) and GFP positivity, and 10,000 events are analyzed from this subset for marker expression.
Statistical significance of differences between Compound (II)- and placebo-treated groups in survival time, white blood cell counts, and spleen weights are assessed using a two-sided Mann-Whitney U-test (Wilcoxon rank sum test).
A murine bone marrow transplant protocol is used to model myeloproliferative disease caused by TEL-PDGFRβ and FIP1L1-PDGFRα. Retroviral transduction of these fusion kinases into bone marrow cells of 5FU-treated donor mice, followed by transplantation into lethally irradiated recipients, produces a rapidly fatal myeloproliferative phenotype characterized by leukocytosis with myeloid predominance, splenomegaly, and extramedullary hematopoiesis.
(§5) Donor bone marrow cells are transduced with a murine retroviral vector expressing TEL-PDGFRβ or FIP1L1-PDGFRα and transplanted into recipients.

FIP1L1-PDGFRα = target: T3, FIP1L1-PDGFRα (Homo sapiens, UniProt P16234); assay: Murine bone marrow transplant model of FIP1L1-PDGFRα-induced myeloproliferative disease; type: in vivo, mouse (Balb/C); conditions: FIP1L1-PDGFRα transplanted mice
T3 construct: FIP1L1 portion (fusion partner); expressed in transfected cells; host or cells: Balb/C mouse donor bone marrow cells (retroviral transduction, MSCV-GFP), transplanted into Balb/C recipients; the other entry of the earlier key: FIP1L1 (Q6UN15, Pre-mRNA 3'-end-processing factor FIP1)
Procedure: as §1, §2, §3, §4
A murine bone marrow transplant protocol is used to model myeloproliferative disease caused by TEL-PDGFRβ and FIP1L1-PDGFRα.
as §5

[4] = daily oral gavage 150 mg/kg/day from day 11
[5] = daily oral gavage 150 mg/kg/day from day 11 after transplant

T3 sequence (P16234 593-1089 limits assumed): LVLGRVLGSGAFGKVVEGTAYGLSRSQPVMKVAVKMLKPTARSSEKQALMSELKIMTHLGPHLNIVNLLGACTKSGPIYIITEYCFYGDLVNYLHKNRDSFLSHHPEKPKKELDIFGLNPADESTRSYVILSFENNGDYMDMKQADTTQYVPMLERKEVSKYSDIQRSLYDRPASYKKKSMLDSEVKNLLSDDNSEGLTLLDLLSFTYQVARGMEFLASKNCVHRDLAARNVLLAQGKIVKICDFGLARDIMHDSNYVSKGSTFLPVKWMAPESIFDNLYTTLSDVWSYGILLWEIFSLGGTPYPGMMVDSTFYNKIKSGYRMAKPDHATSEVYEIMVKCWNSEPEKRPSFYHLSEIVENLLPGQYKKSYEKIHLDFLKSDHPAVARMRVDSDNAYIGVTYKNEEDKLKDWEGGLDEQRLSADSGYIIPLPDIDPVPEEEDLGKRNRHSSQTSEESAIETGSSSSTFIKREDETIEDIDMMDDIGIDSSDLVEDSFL
T1 sequence (P09619 whole entry, stated change not applied, the tested form may be a part): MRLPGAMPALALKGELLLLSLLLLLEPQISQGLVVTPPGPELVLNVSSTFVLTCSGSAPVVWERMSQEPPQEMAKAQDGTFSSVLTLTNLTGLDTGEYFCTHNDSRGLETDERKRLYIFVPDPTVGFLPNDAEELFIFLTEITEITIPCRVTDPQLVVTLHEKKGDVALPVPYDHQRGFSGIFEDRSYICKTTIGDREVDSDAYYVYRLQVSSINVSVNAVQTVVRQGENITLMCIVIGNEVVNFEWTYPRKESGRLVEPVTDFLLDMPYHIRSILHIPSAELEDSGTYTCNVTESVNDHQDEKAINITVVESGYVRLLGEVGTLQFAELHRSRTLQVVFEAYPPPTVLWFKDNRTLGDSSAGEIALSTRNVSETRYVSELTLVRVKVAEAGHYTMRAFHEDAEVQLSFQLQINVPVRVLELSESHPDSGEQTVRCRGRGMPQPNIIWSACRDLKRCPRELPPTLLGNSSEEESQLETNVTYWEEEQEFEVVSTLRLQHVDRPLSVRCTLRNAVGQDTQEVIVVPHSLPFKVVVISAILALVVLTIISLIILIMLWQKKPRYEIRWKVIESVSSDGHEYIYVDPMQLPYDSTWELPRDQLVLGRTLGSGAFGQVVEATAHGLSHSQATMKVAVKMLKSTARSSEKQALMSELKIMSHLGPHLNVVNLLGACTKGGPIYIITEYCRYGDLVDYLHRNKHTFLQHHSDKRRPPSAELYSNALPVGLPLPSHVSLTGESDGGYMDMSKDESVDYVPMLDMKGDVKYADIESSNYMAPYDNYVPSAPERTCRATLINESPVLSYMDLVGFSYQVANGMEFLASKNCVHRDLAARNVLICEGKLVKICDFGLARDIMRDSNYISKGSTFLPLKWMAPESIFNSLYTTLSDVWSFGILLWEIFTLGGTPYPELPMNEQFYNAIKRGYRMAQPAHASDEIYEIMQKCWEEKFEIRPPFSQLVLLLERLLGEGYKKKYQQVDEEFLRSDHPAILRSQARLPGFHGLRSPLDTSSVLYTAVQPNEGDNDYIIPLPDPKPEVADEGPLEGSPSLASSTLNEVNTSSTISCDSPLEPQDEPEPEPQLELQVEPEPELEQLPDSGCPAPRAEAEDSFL
T2 sequence (P09619 554-1106 T681I limits assumed): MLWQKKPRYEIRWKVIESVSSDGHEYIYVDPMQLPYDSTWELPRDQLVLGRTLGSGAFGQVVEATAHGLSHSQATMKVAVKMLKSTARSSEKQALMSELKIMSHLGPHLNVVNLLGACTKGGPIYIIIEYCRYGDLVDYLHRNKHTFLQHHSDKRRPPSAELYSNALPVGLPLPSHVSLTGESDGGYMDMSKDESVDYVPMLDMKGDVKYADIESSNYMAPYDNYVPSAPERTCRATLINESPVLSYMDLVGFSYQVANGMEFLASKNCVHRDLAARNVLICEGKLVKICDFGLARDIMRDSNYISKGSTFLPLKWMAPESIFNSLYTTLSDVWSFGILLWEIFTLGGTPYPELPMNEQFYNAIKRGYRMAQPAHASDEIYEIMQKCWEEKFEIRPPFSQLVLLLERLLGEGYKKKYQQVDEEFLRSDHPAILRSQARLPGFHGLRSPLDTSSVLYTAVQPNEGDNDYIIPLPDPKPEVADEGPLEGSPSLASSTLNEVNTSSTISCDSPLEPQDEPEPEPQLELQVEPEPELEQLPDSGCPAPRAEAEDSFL

Cc1cn(-c2cc(NC(=O)c3ccc(C)c(Nc4nccc(-c5cccnc5)n4)c3)cc(C(F)(F)F)c2)cn1 [Compound (II), 4-methyl-3-[[4-(3-pyridinyl)-2-pyrimidinyl]amino]-N-[5-(4-methyl-1H-imidazol-1-yl)-3-(trifluoromethyl)phenyl] benzamide]
GI50 (Ba/F3 Tel-PDGFRβ cells; Ba/F3 Tel-PDGFRβ cells, 70 h incubation, read-out: IC50, inhibition of proliferation): < 100 nM
Inhibition of transformed Ba/F3 cells (Ba/F3 Tel-PDGFRβ cells; Ba/F3 cells transformed with TEL-PDGFRβ): inhibited
Inhibition of transformed Ba/F3 cells [1]: inhibited
Phosphorylation of PDGFRβ signaling intermediates including PLCγ and PI3K (TEL-PDGFRβ [2]): effectively inhibited
TEL-PDGFRβ tyrosine autophosphorylation (TEL-PDGFRβ [2]): effectively inhibited
FACS analysis of spleen, B220+/CD19+ cells (TEL-PDGFRβ [3]; compared to placebo): slightly increased percentage
FACS analysis of spleen, Gr1+/Mac1+ cells (TEL-PDGFRβ [3]; compared to placebo): consistently reduced percentage
Histopathology of hematopoietic organs (TEL-PDGFRβ [3]; compared to placebo): significantly less severe myeloproliferative disease
Liver weight, Mean (TEL-PDGFRβ [3]; [4]): 1492.5 mg
Liver weight, Median (TEL-PDGFRβ [3]; [4]): 1535 mg
Liver weight, Range (TEL-PDGFRβ [3]; [4]): 1320 to 1590 mg
Spleen weight, Mean (TEL-PDGFRβ [3]; [4]): 350.0 mg
Spleen weight, Median (TEL-PDGFRβ [3]; [4]): 340 mg
Spleen weight, Range (TEL-PDGFRβ [3]; [4]): 250 to 470 mg
WBC, Median (TEL-PDGFRβ [3]; [4]): 1.59e+07 mL⁻¹
WBC, Range (TEL-PDGFRβ [3]; [4]): 10.9-33.5 ×10^6/mL
WBC, Mean (TEL-PDGFRβ [3]; [5]): 1.86e+07 mL⁻¹
Survival (TEL-PDGFRβ [3]; placebo median latency 17 days, p<0.001): 26 days
Total white blood cells (WBC) (TEL-PDGFRβ [3]; vs 563.7 for placebo, p<0.05): 18.6 ×10^6 cells/mL
Extramedullary hematopoiesis in liver (FIP1L1-PDGFRα; compared to placebo): notable absence of any extramedullary hematopoiesis
Histopathology of spleen (FIP1L1-PDGFRα; compared to placebo): striking preservation of normal splenic architecture
Liver weight, Mean (FIP1L1-PDGFRα; [4]): 1128.0 mg
Liver weight, Median (FIP1L1-PDGFRα; [4]): 1090 mg
Liver weight, Range (FIP1L1-PDGFRα; [4]): 1080 to 1290 mg
Spleen weight, Mean (FIP1L1-PDGFRα; [4]): 88.0 mg
Spleen weight, Median (FIP1L1-PDGFRα; [4]): 100 mg
Spleen weight, Range (FIP1L1-PDGFRα; [4]): 50 to 100 mg
WBC, Median (FIP1L1-PDGFRα; [4]): 4.7e+06 mL⁻¹
WBC, Range (FIP1L1-PDGFRα; [4]): 4.0-9.6 ×10^6/mL
WBC, Mean (FIP1L1-PDGFRα; [5]): 5.6e+06 mL⁻¹
Survival: all treated animals alive and healthy until study termination (FIP1L1-PDGFRα; all placebo animals lost by day 24): ≥ 33 days
Total WBC (FIP1L1-PDGFRα; vs 569.7 for placebo, p<0.01): 5.6 ×10^6 cells/mL
